Numbered stars: 1 amine (or outer) side, 2 acyl side, 3 side chain; on linkers, the order of the positions; unused ones are H or OH. Square brackets hold non-standard residues; d marks the D form. Side chains are listed from the residue outwards. Peptide text beside a SMILES is read from it. * marks the point of attachment. Decanoyl(10-(4-HOOC-PhO)) = O=C(O)c1ccc(OCCCCCCCCCC(=O)*)cc1; Lac(3-(imidazol-4-yl)) = O=C(O)[C@@H](O)Cc1c[nH]cn1; γGlu = O=C(O)[C@H](CCC(=O)[*:2])N[*:1]; NMeI = CC[C@H](C)[C@H](NC)C(=O)O; AEEA = NCCOCCOCC(=O)O; Sar = CNCC(=O)O
Key:
[1] = Prodrug half-life in vitro, plasma method (minipig heparin plasma); format: in vitro ADME; conditions: minipig heparin plasma 800 μL + 200 μL 200 mM phosphate pH 7.4, 37° C.; UPLC_A, or UPLC_B for compounds marked *; read-out: T½ in plasma (converted)
Protocol: (§1) The purpose of this example is to test the in vitro half-lives (T½) of the GLP-1 prodrugs of the invention, in comparison to conceptually different prodrugs. In what follows two in vitro methods are described, viz. a method conducted in buffer, and a method conducted in plasma.
(§2) The half life of the prodrug (T½) was calculated from the slope of a linear fit to the curve of ln(% prodrug (Y)) as a function of time (t), as follows: Y=÷αt+k Math. 1 T½=ln(2)/α Math. 2 Plasma Method Buffer: 200 mM Phosphate, pH 7.4 at 37° C.
NaH2PO4.2H2O (15.61 g, 100 mmol) was dissolved in milliQ water (approximately 450 mL) and adjusted to pH=7.44 at approximately 20° C. with concentrated NaOH (aq) and 1 M NaOH (aq). Water was added to 500.00 mL.
Serum: Minipig Serum, Heparin-Plasma
Fresh blood was tapped from minipig into 9 mL LH lithium heparin Vacuette tubes from Greiner bio-one (catalogue number 455084). After cooling on ice it was centrifuged (10 min, 4° C., 3000 rpm/1942G) and the supernatant isolated and kept at −18° C. before use.
100 nmol of the compound to be tested was dissolved in 200 μL buffer, added to 800 μL plasma (centrifuged), and incubated at 37° C. Samples (50 μL) were drawn at appropriate intervals into 150 μL absolute EtOH. After a short stirring the sample was centrifuged and the supernatant transferred to the UPLC vial (10 μL injection).
The % parent drug compared to prodrug formed as a function of time was evaluated by UPLC, and the half-life calculated, both in the same way as described above under the Buffer method.

[2] = Prodrug half-life in vitro, buffer method; format: physicochemical; conditions: 25 mM phosphate buffer pH 7.4, 37° C., 1.0 mg/mL; UPLC_A, or UPLC_B for compounds marked *; read-out: T½ in buffer (converted)
Protocol: as §1
Buffer: 25 mM Phosphate (Ionic strength: 154 mM, pH 7.4 at 37° C.)
NaH2PO4.2H2O (1.95 g, 12.5 mmol) and NaCl (2.61 g, 44.7 mmol) were dissolved in millipore water (approximately 450 mL) and adjusted to pH=7.44 at approximately 20° C. with concentrated NaOH and 1 M NaOH. Water was added to 500.00 mL.
The compound to be tested was dissolved in buffer to a concentration of 1.0 mg/mL and incubated at 37° C. Samples were taken at adequate intervals and the % parent drug compared to prodrug formed as function of time was evaluated by the UPLC method as referred to in Table 1 by comparing the areas under the curves for the two corresponding peaks. These UPLC methods are described in the general experimental section above (UPLC_A, and UPLC_B).
as §2
The resulting half-lives are set out in Table 1 below. For comparison, the T½ in buffer of native GLP-1(7-37) (His7 variant of SEQ ID NO: 1) was 13 minutes (0.2 hours).

| Compound | half-life [1] [h] | half-life at 1 mg/mL [2] [h] | half-life [2] [h] |
| --- | --- | --- | --- |
| CC[C@H](C)[C@H](NC)C(=O)N[C@H](C(=O)O[C@@H](Cc1c[nH]cn1)C(=O)N[C@@H](C)C(=O)N[C@@H](CCC(=O)O)C(=O)NCC(=O)N[C@H](C(=O)N[C@@H](Cc1ccccc1)C(=O)N[C@H](C(=O)N[C@@H](CO)C(=O)N[C@@H](CC(=O)O)C(=O)N[C@H](C(=O)N[C@@H](CO)C(=O)N[C@@H](CCCCNC(=O)COCCOCCNC(=O)COCCOCCNC(=O)CC[C@H](NC(=O)CCCCCCCCCOc1ccc(C(=O)O)cc1)C(=O)O)C(=O)N[C@@H](Cc1ccc(O)cc1)C(=O)N[C@@H](CC(C)C)C(=O)N[C@@H](CCC(=O)O)C(=O)N[C@@H](CCC(=O)O)C(=O)N[C@@H](CCC(N)=O)C(=O)N[C@@H](C)C(=O)N[C@H](C(=O)N[C@@H](CCCNC(=N)N)C(=O)N[C@@H](CCC(=O)O)C(=O)N[C@@H](Cc1ccccc1)C(=O)N[C@H](C(=O)N[C@@H](C)C(=O)N[C@@H](CCCCNC(=O)COCCOCCNC(=O)COCCOCCNC(=O)CC[C@H](NC(=O)CCCCCCCCCOc1ccc(C(=O)O)cc1)C(=O)O)C(=O)N[C@@H](CC(C)C)C(=O)N[C@H](C(=O)N[C@@H](CCCNC(=N)N)C(=O)NCC(=O)N[C@@H](CCCNC(=N)N)C(=O)NCC(=O)O)C(C)C)[C@@H](C)CC)C(C)C)C(C)C)[C@@H](C)O)[C@@H](C)O)C(C)C [Example 3] (H-[NMeI]V[Lac(3-(imidazol-4-yl))]AEGTFTSDVSK([AEEA-AEEA-γGlu-Decanoyl(10-(4-HOOC-PhO))])YLEEQAVREFIAK([AEEA-AEEA-γGlu-Decanoyl(10-(4-HOOC-PhO))])LVRGRG-OH) | 25.6 | 38.5 |  |
| CC[C@H](C)[C@H](NC)C(=O)N[C@H](C(=O)O[C@@H](Cc1c[nH]cn1)C(=O)N[C@@H](C)C(=O)N[C@@H](CCC(=O)O)C(=O)NCC(=O)N[C@H](C(=O)N[C@@H](Cc1ccccc1)C(=O)N[C@H](C(=O)N[C@@H](CO)C(=O)N[C@@H](CC(=O)O)C(=O)N[C@H](C(=O)N[C@@H](CO)C(=O)N[C@@H](CCCCNC(=O)COCCOCCNC(=O)COCCOCCNC(=O)CC[C@H](NC(=O)CCCCCCCCCOc1ccc(C(=O)O)cc1)C(=O)O)C(=O)N[C@@H](Cc1ccc(O)cc1)C(=O)N[C@@H](CC(C)C)C(=O)N[C@@H](CCC(=O)O)C(=O)N[C@@H](CCC(=O)O)C(=O)N[C@@H](CCC(N)=O)C(=O)N[C@@H](C)C(=O)N[C@@H](C)C(=O)N[C@@H](CCCCNC(=O)COCCOCCNC(=O)COCCOCCNC(=O)CC[C@H](NC(=O)CCCCCCCCCOc1ccc(C(=O)O)cc1)C(=O)O)C(=O)N[C@@H](CCC(=O)O)C(=O)N[C@@H](Cc1ccccc1)C(=O)N[C@H](C(=O)N[C@@H](C)C(=O)N[C@@H](Cc1c[nH]c2ccccc12)C(=O)N[C@@H](CC(C)C)C(=O)N[C@H](C(=O)N[C@@H](CCC(N)=O)C(=O)NCC(=O)N[C@@H](CCCNC(=N)N)C(=O)NCC(=O)O)C(C)C)[C@@H](C)CC)C(C)C)[C@@H](C)O)[C@@H](C)O)C(C)C [Example 5] | 32.2 |  | 37.9 |
| CC[C@H](C)[C@H](NC(=O)[C@H](Cc1ccccc1)NC(=O)[C@H](CCC(=O)O)NC(=O)[C@H](CCCNC(=N)N)NC(=O)[C@@H](NC(=O)[C@H](C)NC(=O)[C@H](CCC(N)=O)NC(=O)[C@H](CCC(=O)O)NC(=O)[C@H](CCC(=O)O)NC(=O)[C@H](CC(C)C)NC(=O)[C@H](Cc1ccc(O)cc1)NC(=O)[C@H](CCCCNC(=O)COCCOCCNC(=O)COCCOCCNC(=O)CC[C@H](NC(=O)CCCCCCCCCOc1ccc(C(=O)O)cc1)C(=O)O)NC(=O)[C@H](CO)NC(=O)[C@@H](NC(=O)[C@H](CC(=O)O)NC(=O)[C@H](CO)NC(=O)[C@@H](NC(=O)[C@H](Cc1ccccc1)NC(=O)[C@@H](NC(=O)CNC(=O)[C@H](CCC(=O)O)NC(=O)[C@H](C)NC(=O)[C@H](Cc1c[nH]cn1)OC(=O)[C@@H](NC(=O)CNC)C(C)C)[C@@H](C)O)[C@@H](C)O)C(C)C)C(C)C)C(=O)N[C@@H](C)C(=O)N[C@@H](CCCCNC(=O)COCCOCCNC(=O)COCCOCCNC(=O)CC[C@H](NC(=O)CCCCCCCCCOc1ccc(C(=O)O)cc1)C(=O)O)C(=O)N[C@@H](CC(C)C)C(=O)N[C@H](C(=O)N[C@@H](CCCNC(=N)N)C(=O)NCC(=O)N[C@@H](CCCNC(=N)N)C(=O)NCC(=O)O)C(C)C [Example 1] (H-[Sar]V[Lac(3-(imidazol-4-yl))]AEGTFTSDVSK([AEEA-AEEA-γGlu-Decanoyl(10-(4-HOOC-PhO))])YLEEQAVREFIAK([AEEA-AEEA-γGlu-Decanoyl(10-(4-HOOC-PhO))])LVRGRG-OH) | 3.6 | 9.6 |  |
| CC[C@H](C)[C@H](N)C(=O)N[C@H](C(=O)O[C@@H](Cc1c[nH]cn1)C(=O)N[C@@H](C)C(=O)N[C@@H](CCC(=O)O)C(=O)NCC(=O)N[C@H](C(=O)N[C@@H](Cc1ccccc1)C(=O)N[C@H](C(=O)N[C@@H](CO)C(=O)N[C@@H](CC(=O)O)C(=O)N[C@H](C(=O)N[C@@H](CO)C(=O)N[C@@H](CCCCNC(=O)COCCOCCNC(=O)COCCOCCNC(=O)CC[C@H](NC(=O)CCCCCCCCCOc1ccc(C(=O)O)cc1)C(=O)O)C(=O)N[C@@H](Cc1ccc(O)cc1)C(=O)N[C@@H](CC(C)C)C(=O)N[C@@H](CCC(=O)O)C(=O)N[C@@H](CCC(=O)O)C(=O)N[C@@H](CCC(N)=O)C(=O)N[C@@H](C)C(=O)N[C@H](C(=O)N[C@@H](CCCNC(=N)N)C(=O)N[C@@H](CCC(=O)O)C(=O)N[C@@H](Cc1ccccc1)C(=O)N[C@H](C(=O)N[C@@H](C)C(=O)N[C@@H](CCCCNC(=O)COCCOCCNC(=O)COCCOCCNC(=O)CC[C@H](NC(=O)CCCCCCCCCOc1ccc(C(=O)O)cc1)C(=O)O)C(=O)N[C@@H](CC(C)C)C(=O)N[C@H](C(=O)N[C@@H](CCCNC(=N)N)C(=O)NCC(=O)N[C@@H](CCCNC(=N)N)C(=O)NCC(=O)O)C(C)C)[C@@H](C)CC)C(C)C)C(C)C)[C@@H](C)O)[C@@H](C)O)C(C)C [Example 3a] (H-IV[Lac(3-(imidazol-4-yl))]AEGTFTSDVSK([AEEA-AEEA-γGlu-Decanoyl(10-(4-HOOC-PhO))])YLEEQAVREFIAK([AEEA-AEEA-γGlu-Decanoyl(10-(4-HOOC-PhO))])LVRGRG-OH) | 5 | 7.5 |  |
| CC[C@H](C)[C@H](NC(=O)[C@H](Cc1ccccc1)NC(=O)[C@H](CCC(=O)O)NC(=O)[C@H](CCCNC(=N)N)NC(=O)[C@@H](NC(=O)[C@H](C)NC(=O)[C@H](CCC(N)=O)NC(=O)[C@H](CCC(=O)O)NC(=O)[C@H](CCC(=O)O)NC(=O)[C@H](CC(C)C)NC(=O)[C@H](Cc1ccc(O)cc1)NC(=O)[C@H](CCCCNC(=O)COCCOCCNC(=O)COCCOCCNC(=O)CC[C@H](NC(=O)CCCCCCCCCOc1ccc(C(=O)O)cc1)C(=O)O)NC(=O)[C@H](CO)NC(=O)[C@@H](NC(=O)[C@H](CC(=O)O)NC(=O)[C@H](CO)NC(=O)[C@@H](NC(=O)[C@H](Cc1ccccc1)NC(=O)[C@@H](NC(=O)CNC(=O)[C@H](CCC(=O)O)NC(=O)[C@H](C)NC(=O)[C@H](Cc1c[nH]cn1)OC(=O)[C@@H](NC(=O)[C@@H](N)C(C)C)C(C)C)[C@@H](C)O)[C@@H](C)O)C(C)C)C(C)C)C(=O)N[C@@H](C)C(=O)N[C@@H](CCCCNC(=O)COCCOCCNC(=O)COCCOCCNC(=O)CC[C@H](NC(=O)CCCCCCCCCOc1ccc(C(=O)O)cc1)C(=O)O)C(=O)N[C@@H](CC(C)C)C(=O)N[C@H](C(=O)N[C@@H](CCCNC(=N)N)C(=O)NCC(=O)N[C@@H](CCCNC(=N)N)C(=O)NCC(=O)O)C(C)C [Example 2a] (H-VV[Lac(3-(imidazol-4-yl))]AEGTFTSDVSK([AEEA-AEEA-γGlu-Decanoyl(10-(4-HOOC-PhO))])YLEEQAVREFIAK([AEEA-AEEA-γGlu-Decanoyl(10-(4-HOOC-PhO))])LVRGRG-OH) | 4.6 | 10.5 |  |

From patent US9452225B2, “GLP-1 prodrugs” (Novo Nordisk A/S, priority 2012, dated 2016)
